Like-named read-outs stand apart in the source and are kept apart here.
Key:
[1] = target: T1, CIB1 and αIIb interaction (CIB1-GST : F-αIIb peptide) (Homo sapiens, UniProt Q99828); assay: FP assay, 1536-well qHTS format (primary and confirmatory screen); type: binding; details: for Curve Class (confirmatory screen) / CONFIRMATORY SCREEN Curve Class: qHTS curve class
T1 construct: made in house; host or cells: BL-21 plus RIL cells (E. coli)
T1 sequence (Q99828 1-191): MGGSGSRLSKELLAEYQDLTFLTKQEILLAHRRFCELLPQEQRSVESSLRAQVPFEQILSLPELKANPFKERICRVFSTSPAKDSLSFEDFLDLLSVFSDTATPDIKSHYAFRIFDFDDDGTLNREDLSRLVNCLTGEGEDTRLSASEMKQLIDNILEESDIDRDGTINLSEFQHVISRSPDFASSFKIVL

[2] = target: T2, GST-CIB1 : F-scrambled peptide (Homo sapiens, UniProt Q99828); assay: FP scrambled-peptide counter screen, 1536-well format; type: binding; details: for Curve Class (counterscreen) / COUNTERSCREEN Curve Class: qHTS curve class
T2 construct: made in house; host or cells: BL-21 plus RIL cells (E. coli)
T2 sequence (Q99828 1-191): T1 sequence (Q99828 1-191)

[3] = confirmatory screen, negative sign = inhibitory curve
[4] = confirmatory screen, read-out: IC50 [μM] (confirmatory screen)
[5] = qHTS FP screen hits, Table S2, negative = inhibition
[6] = qHTS FP screen hits, Table S2, one class per curve where COUNT > 1, negative sign = inhibitory curve
[7] = qHTS FP screen hits, Table S2, read-out: IC50
[8] = counterscreen, negative sign = inhibitory curve
[9] = counterscreen, read-out: IC50 [μM] (counterscreen)
[10] = qHTS primary screen hits, Table S2, negative = inhibition
[11] = qHTS primary screen hits, Table S2, negative sign = inhibitory curve
[12] = qHTS primary screen hits, Table S2, read-out: IC50
[13] = confirmatory screen, YES/NO call
[14] = confirmatory screen, negative = inhibition
[15] = scrambled-peptide counterscreen
[16] = scrambled-peptide counterscreen, YES/NO call
[17] = Table S3, confirmatory screen, YES/NO call
[18] = Table S3, confirmatory screen, a negative sign marks inhibitory curves
[19] = Table S3, confirmatory screen, negative = inhibition
[20] = Table S3, confirmatory screen, read-out: IC50 [μM] (confirmatory screen)
[21] = Table S3, counterscreen, a negative sign marks inhibitory curves
[22] = Table S3, counterscreen, negative = inhibition
[23] = Table S3, counterscreen, read-out: IC50 [μM] (counterscreen)
[24] = qHTS primary screen hits, Table S2, negative sign = inhibitory curve, several classes where COUNT > 1
[25] = Table S3, counterscreen, YES/NO call
[26] = confirmatory screen, read-out: CONFIRMATORY SCREEN IC50

| SMILES | Efficacy (%) (confirmatory screen) ([1]; confirmatory screen) | Confirm? (confirmatory screen) ([1]; confirmatory screen, YES/NO) | Curve Class (confirmatory screen) [1, 3] | IC50 [1, 4] [µM] | Efficacy (%) (counterscreen) ([2]; counterscreen) | Curve Class (counterscreen) [2, 8] | IC50 [2, 9] [µM] | Efficacy (%) [1, 10] [%] | IC50 [1, 12] [µM] | Curve Class (confirmatory screen) [1, 18] | Efficacy (%) (confirmatory screen) [1, 19] | Curve Class (counterscreen) [2, 21] | Efficacy (%) (counterscreen) [2, 22] | IC50 [2, 23] [µM] | Curve Class [1, 24] | further results |
| --- | --- | --- | --- | --- | --- | --- | --- | --- | --- | --- | --- | --- | --- | --- | --- | --- |
| CNc1ccc(C(=O)Oc2cc(ON=[N+]([O-])N(C)C)c([N+](=O)[O-])cc2[N+](=O)[O-])cc1 [NCGC00168169-02] | -42 | YES | -1.2 | 14.1 | -40 | -2.2 | 39.8 |  |  |  |  |  |  |  |  | Efficacy (%) [1, 5]: -30%; Curve Class [1, 6]: -1.2; IC50 [1, 7]: 22.4 µM |
| CC(=O)NC(c1cccs1)c1cc(Br)c2cccnc2c1O (stereo not shown) [NCGC00183685-02] |  |  |  |  |  |  |  |  |  |  |  |  |  |  |  | CONFIRMATORY SCREEN Efficacy (%) ([1]; confirmatory screen): -36%; CONFIRMATORY SCREEN Curve Class ([1]; confirmatory screen): 4; COUNTERSCREEN Efficacy (%) ([2]; counterscreen): -11%; COUNTERSCREEN Curve Class ([2]; counterscreen): 4 |
| CN1CCN(c2ccc(Nc3nn4c(=O)c5ccccc5nc4s3)cc2)CC1.O=C(O)C(F)(F)F [NCGC00186454-01] | -50 | YES | -2.2 | 50.1 | -37 | -2.4 | 79.4 | -32 | 12.6 |  |  |  |  |  |  | Curve Class [1, 11]: -1.4 |
| O=C(Cc1ccc(Cl)c(Cl)c1)Nc1ccc(S(=O)(=O)Nc2cccc(C(=O)O)c2)cc1.O=C(O)C(F)(F)F [NCGC00248362-01] |  |  |  |  |  |  |  | -20 | 12.6 |  |  |  |  |  |  | CONFIRMATORY SCREEN Confirm? [1, 13]: YES; CONFIRMATORY SCREEN Curve Class [1, 3]: -1.4; CONFIRMATORY SCREEN Efficacy (%) [1, 14]: -27%; Curve Class [1, 11]: -1.4; COUNTERSCREEN Efficacy (%) [2, 15]: 26%; COUNTERSCREEN Confirm? [2, 16]: YES; COUNTERSCREEN Curve Class [2, 15]: 4 |
| COc1ccc2[nH]c([S+]([O-])Cc3ncc(C)c(OC)c3C)nc2n1 (stereo not shown) [NCGC00386399-04] |  |  |  |  |  |  |  |  |  | -1.2 | -44 | -2.2 | -72 | 44.7 |  | Confirm? (confirmatory screen) [1, 17]: YES; IC50 [1, 20]: 25.1 µM |
| N#Cc1ccc(Nc2nc(-c3ccc(O)cc3O)cs2)cc1C(F)(F)F [NCGC00386816-01] | -72 | YES | -2.2 | 50.1 | -65 | -2.2 | 28.2 |  |  |  |  |  |  |  |  | Efficacy (%) [1, 5]: -71%; Curve Class [1, 6]: -2.2; IC50 [1, 7]: 35.5 µM |
| CN(C)CCCCCCNC(=O)c1cccc(-c2cc(O)c3ncccc3c2)c1.O=C(O)C(F)(F)F [NCGC00247743-01] |  |  |  |  |  |  |  | -33 | 22.4 | 4 | -35 | -2.4 | -55 | 44.7 | -1.2 | Confirm? (counterscreen) [2, 25]: YES |
| CO[C@@]12[C@H](COC(N)=O)C3=C(C(=O)C(C)=C(N)C3=O)N1C[C@@H]1N[C@@H]12 [NCGC00163468-05] |  |  |  |  |  |  |  | -38 | 25.1 | 4 | -31 | 3 | 95 | 39.8 | -1.2 |  |
| COc1ccc(CC(=O)Nc2ccc(S(=O)(=O)Nc3cc(C)on3)cc2)cc1C.O=C(O)C(F)(F)F [NCGC00244861-01] | -69 | YES | -2.4 | 39.8 | -14 | 4 |  | -19 | 11.2 |  |  |  |  |  | -1.4 | Confirm? (counterscreen) ([2]; counterscreen, YES/NO): YES |
| O=C(O)C(F)(F)F.O=S(=O)(Nc1nccs1)c1ccc(NCc2cc(F)cc(Cl)c2O)cc1 [NCGC00273967-01] | -40 | YES | -1.4 | 31.6 | 170 | 3 | 39.8 | -28 | 1.8 |  |  |  |  |  | -1.4 | Confirm? (counterscreen) ([2]; counterscreen, YES/NO): YES |
| O=C(NC1=CC(=O)c2ccccc2C1=O)c1ccccc1.O=C(O)C(F)(F)F [NCGC00357425-01] | -159 | YES | -1.1 | 11.2 | -113 | -1.1 | 11.2 | -92 | 25.1 |  |  |  |  |  |  | Curve Class [1, 11]: -1.1 |
| O=C(O)C(F)(F)F.O=C1CCC2=C1C1(CCCC1)N=C(Nc1nc3ccccc3o1)N2 [NCGC00188036-01] |  |  |  |  |  |  |  | -24 | 2.8 |  |  |  |  |  | -1.4 | CONFIRMATORY SCREEN Efficacy (%) ([1]; confirmatory screen): -27%; CONFIRMATORY SCREEN Curve Class ([1]; confirmatory screen): 4; COUNTERSCREEN Efficacy (%) ([2]; counterscreen): -10%; COUNTERSCREEN Curve Class ([2]; counterscreen): 4 |
| CNc1oc(-c2c[nH]c3ccccc23)nc1C#N.O=C(O)C(F)(F)F [NCGC00262511-01] |  |  |  |  |  |  |  | -19 | 15.8 | -3 | -55 | -2.4 | -53 | 28.2 |  | Confirm? (confirmatory screen) [1, 17]: YES; IC50 [1, 20]: 35.5 µM; Curve Class [1, 11]: -1.4 |
| O=C(NC1=CC(=O)[C@H]2O[C@H]2C1=O)c1ccccc1O [NCGC00168093-01] |  |  |  |  |  |  |  | -29 | 31.6 | -2.4 | -49 | -2.4 | -54 | 50.1 | -2.4 | Confirm? (confirmatory screen) [1, 17]: YES; IC50 [1, 20]: 56.2 µM |
| CC(C)NC(=S)N/N=C1\C(=O)Nc2ccccc21.O=C(O)C(F)(F)F [NCGC00229535-01] |  |  |  |  |  |  |  |  |  |  |  |  |  |  |  | CONFIRMATORY SCREEN Confirm? [1, 13]: YES; CONFIRMATORY SCREEN Curve Class [1, 3]: -1.4; CONFIRMATORY SCREEN Efficacy (%) [1, 14]: -48%; IC50 [1, 26]: 2.8 µM; Efficacy (%) [1, 5]: -24%; IC50 [1, 7]: 12.6 µM; COUNTERSCREEN Efficacy (%) [2, 15]: -45%; COUNTERSCREEN Confirm? [2, 16]: YES; COUNTERSCREEN Curve Class [2, 15]: -1.2; IC50 ([2]; scrambled-peptide counterscreen, read-out: COUNTERSCREEN IC50): 11.2 µM |
| CCNC(=O)c1ccc(-c2ccc3ncnc(N4CCOCC4)c3c2)o1.O=C(O)C(F)(F)F [NCGC00238377-01] | -45 | YES | -1.4 |  | -38 | -2.2 | 44.7 | -23 | 28.2 |  |  |  |  |  | -2.4 |  |
| O=C(O)c1cc(O)c2c(c1)C(=O)c1cccc(O)c1C2=O [NCGC00018199-06] | -66 | YES | -1.2 |  | -61 | -1.2 |  | -32 |  |  |  |  |  |  | -2.2 |  |
| CN(C(=O)c1cccs1)c1cccnc1.O=C(O)C(F)(F)F [NCGC00241518-01] |  |  |  |  |  |  |  |  |  | -1.1 | -90 | -2.1 | -118 | 44.7 |  | Confirm? (confirmatory screen) [1, 17]: YES; IC50 [1, 20]: 31.6 µM; Efficacy (%) [1, 5]: -77%; Curve Class [1, 6]: -2.2; IC50 [1, 7]: 50.1 µM |
| CN(C)CC1CCCN(C2CCN(C(=O)c3cccc(-c4cc(O)c5ncccc5c4)c3)CC2)C1.O=C(O)C(F)(F)F (stereo not shown) [NCGC00247737-01] |  |  |  |  |  |  |  |  |  | 4 | -41 | -2.2 | -46 | 39.8 |  | Efficacy (%) [1, 5]: -45%; Curve Class [1, 6]: -1.2; IC50 [1, 7]: 22.4 µM; Confirm? (counterscreen) [2, 25]: YES |
| CCN1C(=O)c2ccccc2[S+]([O-])c2ccc(C(=O)NCc3cccc(F)c3)cc21 (stereo not shown) [NCGC00241657-01] | -68 | YES | -2.2 | 50.1 | -26 | -1.4 | 35.5 | -70 | 39.8 |  |  |  |  |  |  | Curve Class [1, 11]: -2.2; Confirm? (counterscreen) ([2]; counterscreen, YES/NO): YES |
| CCCC1CCN(C(=O)COC(=O)c2ccc(S(C)(=O)=O)c([N+](=O)[O-])c2)CC1 [NCGC00188533-01] |  |  |  |  |  |  |  |  |  |  |  |  |  |  |  | CONFIRMATORY SCREEN Confirm? [1, 13]: YES; CONFIRMATORY SCREEN Curve Class [1, 3]: -1.4; CONFIRMATORY SCREEN Efficacy (%) [1, 14]: -28%; IC50 [1, 26]: 2.5 µM; Efficacy (%) [1, 5]: -25%; IC50 [1, 7]: 1.3 µM; COUNTERSCREEN Efficacy (%) [2, 15]: -28%; COUNTERSCREEN Confirm? [2, 16]: YES; COUNTERSCREEN Curve Class [2, 15]: 4 |
